# Experimental data from patent US10092529B2, “Necrosis inhibitors” (National Institute of Biological Sciences, Beijing, priority 2014, dated 2018).
# System: HT-29 cells
# Assay: Necrosis assay: TNF-α/Smac mimetic/z-VAD induced necrosis, cell viability by CellTiter-Glo
# Format: cell-based
# Conditions: Homo sapiens, inhibition of necrosis, ATP levels, range given in uM, read-out: EC50 (necrosis activity)
# Protocol: HT-29 cells were cultured in McCoy's 5A culture medium (Invitrogen). On day one, HT-29 cells were plated in 96-well assay plates at density of 2,500-3,500 cells per well. On day two, necrosis were induced by adding 20 ng/ml TNF-α (T), 100 nM Smac mimetic (S), and […] z-VAD (Z). At the same time, […] compound from a chemical library of ˜200,000 compounds was delivered into each well. After 24 hrs treatment, cell viability was determined by measuring ATP level using the CellTiter-Glo Luminescent Cell Viability Assay kit. A CellTiter-Glo Assay (Promega) was performed according to the manufacturer's instructions Luminescence was recorded with a PerkinElmer EnSpire Multimode Plate Reader. Survived cells were normalized to those cells treated with DMSO. Nec-1 was used as a positive control for screening necrosis inhibitors. Data are represented as mean±standard deviation of duplicates.
# Dose-dependent inhibition of necrosis by compound #9 and the derivative compounds in HT-29 cells were determined by measuring ATP levels as described above.
row,SMILES,EC50
1,"CCC(C)(C)C(=O)N1C[C@H](O)[C@H]1c1ccccc1 [Compound S5, 1-((2R,3S)-3-hydroxy-2-phenylazetidin-1-yl)-2,2-dimethylbutan-1-one]",1 to 100 µM
2,"CCC(C)(C)C(=O)N1CC[C@H](O)[C@H]1c1ccccc1 [Compound S1, 1-((2R,3S)-3-hydroxy-2-phenylpyrrolidin-1-yl)-2,2-dimethylbutan-1-one]",1 to 10 µM
3,"CCS(=O)(=O)N1C(=O)C[C@H]1c1ccccc1 [Compound 43, (S)-1-(ethylsulfonyl)-4-phenylazetidin-2-one]",1 to 100 µM
4,"CC(C)(C)S(=O)(=O)N1C(=O)C[C@H]1c1ccccc1 [Compound 45, (S)-1-(tert-butylsulfonyl)-4-phenylazetidin-2-one]",1 to 100 µM
5,"CCC(C)(C)C(=O)N1CC(O)C1c1ccccc1 (stereo not drawn) [Compound 16, 1-(3-hydroxy-2-phenylazetidin-1-yl)-2,2-dimethylbutan-1-one]",1 to 10 µM
6,"CCC(C)(C)C(=O)N1CCOCC1c1ccccc1 (stereo not drawn) [Compound 12, 2,2-dimethyl-1-(3-phenylmorpholino)butan-1-one]",1 to 100 µM
7,"CC(C)(C)S(=O)(=O)N1CC[C@H]1c1ccccc1 [Compound S8, (S)-1-(tert-butylsulfonyl)-2-phenylazetidine]",1 to 100 µM
8,"CC(C)(C)[S+]([O-])N1CC[C@H]1c1ccccc1 (stereo partly drawn) [Compound S7, (2S)-1-(tert-butylsulfinyl)-2-phenylazetidine]",1 to 10 µM
9,"CCC(C)(C)C(=O)N1CCN(C(=O)OC(C)(C)C)CC1c1ccccc1 (stereo not drawn) [Compound 19, tert-butyl 4-(2,2-dimethylbutanoyl)-3-phenylpiperazine-1-carboxylate]",1 to 100 µM
10,"O=C1C[C@@H](c2ccccc2)N1C(=O)C1C2CC3CC(C2)CC1C3 (stereo partly drawn) [Compound 47, (S)-1-(adamantane-2-carbonyl)-4-phenylazetidin-2-one]",1 to 10 µM
11,"CC(C)S(=O)(=O)N1C(=O)C[C@H]1c1ccccc1 [Compound 42, (S)-1-(isopropylsulfonyl)-4-phenylazetidin-2-one]",1 to 100 µM
12,"O=C(N1CCCC1c1cccc(F)c1)C12CC3CC(CC(C3)C1)C2 (stereo not drawn) [Compound 37, adamantan-1-yl(2-(3-fluorophenyl)pyrrolidin-1-yl)methanone]",1 to 100 µM
13,"CC(=O)N1C(=O)OC[C@H]1c1ccccc1 [Compound 39, (R)-3-acetyl-4-phenyloxazolidin-2-one]",1 to 10 µM
14,"CCC(C)(C)C(=O)N1C(=O)CCN1c1ccccc1 [Compound 33, 2-(2,2-dimethylbutanoyl)-1-phenylpyrazolidin-3-one]",1 to 100 µM
15,CC(F)(F)C(C)(C)C(=O)N1CCC=C[C@H]1c1ccccc1 [Compound S17],1 to 100 µM
16,"CCC(C)(C)C(=O)N1CC1c1ccccc1 (stereo not drawn) [Compound 1, 2,2-dimethyl-1-(2-phenylaziridin-1-yl)butan-1-one]",1 to 100 µM
17,"C#CCN1C[C@@H](c2ccccc2)N(C(=O)C(C)(C)CC)C1=O [Compound 30, (R)-3-(2,2-dimethylbutanoyl)-4-phenyl-1-(prop-2-yn-1-yl)imidazolidin-2-one]",1 to 10 µM
18,"CCC(C)(C)C(=O)N1CCOC1c1ccccc1 (stereo not drawn) [Compound 6, 2,2-dimethyl-1-(2-phenyloxazolidin-3-yl)butan-1-one]",1 to 100 µM
19,CC(F)(F)C(C)(C)C(=O)N1C=CC=CC1c1ccccc1 (stereo not drawn) [Compound S15],1 to 100 µM
20,"CCC(C)(C)C(=O)N1CCN(C(C)=O)CC1c1ccccc1 (stereo not drawn) [Compound 18, 1-(4-acetyl-2-phenylpiperazin-1-yl)-2,2-dimethylbutan-1-one]",1 to 100 µM
21,CC(F)(F)C(C)(C)C(=O)N1C=CC=CC1C1CCCCC1 (stereo not drawn) [Compound S14],1 to 100 µM
22,CC(F)(F)C(C)(C)C(=O)N1CC=C[C@H]1c1ccccc1 [Compound S16],1 to 100 µM
23,"O=C1C[C@@H](c2ccccc2)N1CC1CC1 [Compound 50, (S)-1-(cyclopropylmethyl)-4-phenylazetidin-2-one]",1 to 100 µM
24,"CCC(C)(C)C(=O)N1CCCCC1c1ccccc1 (stereo not drawn) [Compound 11, 2,2-dimethyl-1-(2-phenylpiperidin-1-yl)butan-1-one]",1 to 100 µM
25,"CCC(C)(C)C(=O)N1C(=O)CC1c1cccc([N+](=O)[O-])c1 (stereo not drawn) [Compound 28, 1-(2,2-dimethylbutanoyl)-4-(3-nitrophenyl)azetidin-2-one]",1 to 10 µM
26,"C#CC(C)(C)C(=O)N1C(=O)CC1c1cccc(N=[N+]=[N-])c1 (stereo not drawn) [Compound 44, 4-(3-azidophenyl)-1-(2,2-dimethylbut-3-ynoyl)azetidin-2-one]",1 to 10 µM
27,"CC(C)(C)[S+]([O-])N1C(=O)C[C@H]1c1ccccc1 (stereo partly drawn) [Compound 41, (4S)-1-(tert-butylsulfinyl)-4-phenylazetidin-2-one]",1 to 100 µM

# Same assay, conditions: inhibition of necrosis, ATP levels, range given in nM, read-out: EC50 (necrosis activity)
row,SMILES,EC50
1,"C#Cc1cccc(C2CC(=O)N2C(=O)C(C)(C)CC)c1 (stereo not drawn) [Compound 27, 1-(2,2-dimethylbutanoyl)-4-(3-ethynylphenyl)azetidin-2-one]",0.001 to 1 µM
2,CC(F)(F)C(C)(C)C(=O)N1CC[C@H]1c1ccccc1 [Compound S9],0.001 to 1 µM
3,"CCC(C)(C)C(=O)N1N=CCC1c1ccccc1 (stereo not drawn) [Compound 20, 2,2-dimethyl-1-(5-phenyl-4,5-dihydro-1H-pyrazol-1-yl)butan-1-one]",0.001 to 1 µM
4,"C#CC(C)(C)C(=O)N1CC[C@H]1c1ccccc1 [Compound 46, (S)-2,2-dimethyl-1-(2-phenylazetidin-1-yl)but-3-yn-1-one]",0.001 to 1 µM
5,"CCC(C)(C)C(=O)N1COC[C@H]1c1ccccc1 [Compound 8, (R)-2,2-dimethyl-1-(4-phenyloxazolidin-3-yl)butan-1-one]",0.001 to 1 µM
6,"CCC(C)(C)C(=O)N1NCCC1c1ccccc1 (stereo not drawn) [Compound 21, 2,2-dimethyl-1-(5-phenylpyrazolidin-1-yl)butan-1-one]",0.001 to 1 µM
7,"CCC(C)(C)C(=O)N1C(=O)C(F)(F)C1c1ccccc1 (stereo not drawn) [Compound 32, 1-(2,2-dimethylbutanoyl)-3,3-difluoro-4-phenylazetidin-2-one]",0.001 to 1 µM
8,"CCC(C)(C)C(=O)N1C(=O)OC[C@H]1c1ccccc1 [Compound 23, (R)-3-(2,2-dimethylbutanoyl)-4-phenyloxazolidin-2-one]",0.001 to 1 µM
9,"CCC(C)(C)C(=O)N1C(c2ccccc2)CCN1C (stereo not drawn) [Compound 22, 2,2-dimethyl-1-(2-methyl-5-phenylpyrazolidin-1-yl)butan-1-one]",0.001 to 1 µM
10,"O=C(N1CCCC1c1cccc(F)c1)C1(C(F)(F)F)CCCC1 (stereo not drawn) [Compound 35, (2-(3-fluorophenyl)pyrrolidin-1-yl)(1-(trifluoromethyl)cyclopentyl)methanone]",0.001 to 1 µM
11,"CC(F)(F)C(C)(C)C(=O)N1CCCC1c1ccccc1 (stereo not drawn) [Compound S10, 3,3-difluoro-2,2-dimethyl-1-(2-phenylpyrrolidin-1-yl) butan-1-one]",0.001 to 1 µM
12,"CCC(C)(C)C(=O)N1CCCC1C1CCCCC1 (stereo not drawn) [Compound 5, 1-(2-cyclohexylpyrrolidin-1-yl)-2,2-dimethylbutan-1-one]",0.001 to 1 µM
13,"O=C(N1CCCC1c1cccc(F)c1)C1(C(F)(F)F)CCC1 (stereo not drawn) [Compound 36, (2-(3-fluorophenyl)pyrrolidin-1-yl)(1-(trifluoromethyl)cyclobutyl)methanone]",0.001 to 1 µM
14,"CCC(C)(C)C(=O)N1CCCC1c1cccc(F)c1 (stereo not drawn) [Compound 9, 1-(2-(3-fluorophenyl)pyrrolidin-1-yl)-2,2-dimethylbutan-1-one]",0.001 to 1 µM
15,"CC(C)(C)C(=O)N1CCCC1c1ccccc1 (stereo not drawn) [Compound S11, 2,2-dimethyl-1-(2-phenylpyrrolidin-1-yl)propan-1-one]",0.001 to 1 µM

# Same assay, conditions: inhibition of necrosis, ATP levels, range given in uM, read-out: EC50 (necrosis activity)
row,SMILES,EC50
1,C=CC(C)(C)C(=O)N1CC[C@H]1c1ccccc1 [Compound 68],1 to 1000 µM
2,CCC(C)(C)S(=O)(=O)N1CC[C@H]1c1ccccc1 [Compound 70],1 to 1000 µM
3,C=CC(C)(C)C(=O)N1CCCC1c1ccccc1 (stereo not drawn) [Compound 69],1 to 1000 µM
4,CCC(C)(C)C(=O)N1CCC1c1ccco1 (stereo not drawn) [Compound 61],1 to 1000 µM
5,CCC(C)(C)C(=O)N1CCC1c1cccs1 (stereo not drawn) [Compound 59],1 to 1000 µM
6,CCC(C)(C)C(=O)N1CCC=C[C@H]1C1CCCCC1 [Compound 53],1 to 1000 µM
7,CCC(C)(C)C(=O)N1CC=C[C@H]1c1ccccc1 [Compound 72],1 to 1000 µM
8,CCC(C)(C)C(=O)N1CCC1c1ncc(C)s1 (stereo not drawn) [Compound 65],1 to 1000 µM
9,C=CC(C)(C)C(=O)N1CCC1c1ncc(C)s1 (stereo not drawn) [Compound 66],1 to 1000 µM
10,CCC(C)(C)C(=O)N1OCCC1c1ccccc1 (stereo not drawn) [Compound 76],1 to 1000 µM
11,C=CC(C)(C)C(=O)N1CC=C[C@H]1c1ccccc1 [Compound 73],1 to 1000 µM
12,C=CC(C)(C)C(=O)N1C=CC=C[C@H]1C1CCCCC1 [Compound 57],1 to 1000 µM
13,C=CC(C)(C)C(=O)N1OCCC1c1ccccc1 (stereo not drawn) [Compound 77],1 to 1000 µM
14,C=CC(C)(C)C(=O)N1C=CC=CC1c1ccccc1 (stereo not drawn) [Compound 58],1 to 1000 µM
15,C=CC(C)(C)C(=O)N1CCC1c1ccc(C)s1 (stereo not drawn) [Compound 63],1 to 1000 µM
16,CCC(C)(C)C(=O)N1C=CC=CC1c1ccccc1 (stereo not drawn) [Compound 55],1 to 1000 µM
17,CCC(C)(C)C(=O)N1CCC1c1ccc(C)s1 (stereo not drawn) [Compound 60],1 to 1000 µM
18,C=CC(C)(C)C(=O)N1CCC1c1cccs1 (stereo not drawn) [Compound 62],1 to 1000 µM
19,CCC(C)(C)C(=O)N1CCC1c1cccc(F)c1 (stereo not drawn) [Compound 71],1 to 1000 µM
20,C=CC(C)(C)C(=O)N1CCC=C[C@H]1C1CCCCC1 [Compound 54],1 to 1000 µM
21,C=CC(C)(C)C(=O)N1CCC1c1ccco1 (stereo not drawn) [Compound 64],1 to 1000 µM
